Among the data in article PMC6222819, “Assessment of Binding Interaction between Bovine Lactoferrin and Tetracycline Hydrochloride: Multi-Spectroscopic Analyses and Molecular Modeling” (Molecules : A Journal of Synthetic Chemistry and Natural …, 2018) are Kd values, retold here.

Where a name gives a salt, the structure may show the parent alone.

This assay concerns the target T1, bovine lactoferrin (bLf) (Bos taurus, UniProt P24627).
T1 construct: gene LTF; 80 kDa; single polypeptide chain
Description: microscale thermophoresis. The class given is binding. In general terms: Microscale thermophoresis detects binding through changes in fluorescence in a small temperature gradient.

T1 sequence (P24627 20-708): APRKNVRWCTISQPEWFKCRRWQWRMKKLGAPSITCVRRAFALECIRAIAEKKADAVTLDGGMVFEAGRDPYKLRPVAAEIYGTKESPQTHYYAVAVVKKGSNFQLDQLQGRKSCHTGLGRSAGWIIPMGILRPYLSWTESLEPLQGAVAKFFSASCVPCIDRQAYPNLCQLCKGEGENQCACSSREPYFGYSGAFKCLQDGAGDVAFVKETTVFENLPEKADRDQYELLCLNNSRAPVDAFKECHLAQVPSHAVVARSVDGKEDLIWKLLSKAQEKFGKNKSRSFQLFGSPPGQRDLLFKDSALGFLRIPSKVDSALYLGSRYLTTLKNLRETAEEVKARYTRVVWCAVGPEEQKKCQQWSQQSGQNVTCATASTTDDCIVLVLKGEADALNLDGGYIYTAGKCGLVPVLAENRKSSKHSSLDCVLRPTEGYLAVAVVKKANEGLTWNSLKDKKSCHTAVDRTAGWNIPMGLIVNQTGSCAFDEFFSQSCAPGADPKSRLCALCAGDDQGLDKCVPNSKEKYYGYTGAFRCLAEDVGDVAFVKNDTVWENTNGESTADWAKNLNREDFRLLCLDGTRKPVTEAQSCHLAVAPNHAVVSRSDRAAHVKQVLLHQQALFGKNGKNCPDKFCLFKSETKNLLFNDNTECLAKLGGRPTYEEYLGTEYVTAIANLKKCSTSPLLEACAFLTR

Consider `CN(C)[C@@H]1C(O)=C(C(N)=O)C(=O)[C@@]2(O)C(O)=C3C(=O)c4c(O)cccc4[C@@](C)(O)[C@H]3C[C@@H]12` [Tetracycline hydrochloride], for which binding was characterised by a dissociation constant (Kd) of 35.2 µM.

Broadly, the Kd is the concentration at which binding is half-saturated.
